Experimental data from US20070129344A1, “Bicyclic 6-alkylidene-penem beta-lactamase inhibitors and beta-lactam antibiotic combination: a broad spectrum antibiotic” (priority 2005, published 2007).
Converted amounts (≈) assume the structure as drawn. Read-outs that look alike come from different tables or passages of the source.

How the values were obtained:
E. coli GC 2009 (TEM-10) = assay: MIC microbroth dilution; β-lactamase class A (ESBL); type: cell-based
Method: (§1) The in vitro activities of the antibiotics were determined by the microbroth dilution method as recommended by the National Committee for Clinical Laboratory Standards (NCCLS). (NCCLS. 2000. Methods for Dilution Antimicrobial Susceptibility Tests for Bacteria That Grow Aerobically; Approved Standards: M7-A5, vol. 19. National Committee for Clinical Laboratory Standards, Villanova, Pa.). Mueller-Hinton II broth (MHBII)(BBL Cockeysville, Md.), was used for the testing procedure. […]. The plates were incubated for 18-22 hours at 35° C. in ambient air.

E. coli GC 2253 (IRT-2) = assay: MIC microbroth dilution; β-lactamase class A (IRT); type: cell-based; conditions: Escherichia coli, Cefepime alone, control of Compound 1 test
Method: as §1

E. coli GC 2805 (CcrA) = assay: MIC microbroth dilution; β-lactamase class B; type: cell-based
Method: as §1

[1] = test system: A. baumannii GC 7684 AmpC, AmpC; assay: MIC microbroth dilution; β-lactamase class C; type: cell-based; conditions: Cefepime alone
Method: as §1

[2] = test system: A. baumannii GC 7687 AmpC; assay: MIC microbroth dilution; β-lactamase class C; type: cell-based; conditions: Cefepime alone
Method: as §1

[3] = test system: C. freundii GC 4164 Inducible AmpC; assay: MIC microbroth dilution; β-lactamase class C; type: cell-based; conditions: Cefepime alone
Method: as §1

[4] = test system: E. aerogenes 1697-MP GC 7845 AmpC; assay: MIC microbroth dilution; β-lactamase class C; type: cell-based; conditions: E. aerogenes GC 7845, Cefepime alone
Method: as §1

[5] = test system: E. cloacae GC 1477 (AmpC); assay: MIC microbroth dilution; β-lactamase class C; type: cell-based; conditions: Enterobacter cloacae, Cefepime alone, read-out: MIC
Method: as §1

[6] = test system: E. cloacae GC 1712 AmpC-inducible; assay: MIC microbroth dilution; β-lactamase class C; type: cell-based; conditions: Cefepime alone
Method: as §1

[7] = test system: E. cloacae GC 4142 (AmpC); assay: MIC microbroth dilution; β-lactamase class C; type: cell-based; conditions: Enterobacter cloacae, Cefepime alone, read-out: MIC
Method: as §1

[8] = test system: E. cloacae PT 1494 Inducible AmpC; assay: MIC microbroth dilution; β-lactamase class C; type: cell-based; conditions: Cefepime alone
Method: as §1

[9] = test system: E. cloacae PT 967 Inducible AmpC; assay: MIC microbroth dilution; β-lactamase class C; type: cell-based; conditions: Cefepime alone
Method: as §1

[10] = test system: K. pneumoniae GC 7820 Act 1; assay: MIC microbroth dilution; β-lactamase class C; type: cell-based; conditions: Klebsiella pneumoniae, GC7820ACT1, K. pneumoniae GC 7820, Cefepime alone, read-out: MIC
Method: as §1

[11] = test system: K. pneumoniae GC 7821 DHA 1; assay: MIC microbroth dilution; β-lactamase class C; type: cell-based; conditions: Klebsiella pneumoniae, GC7821DHA1, K. pneumoniae GC 7821, Cefepime alone, read-out: MIC
Method: as §1

[12] = test system: K. pneumoniae GC 7822 Act 1; assay: MIC microbroth dilution; β-lactamase class C; type: cell-based
Method: as §1

[13] = test system: K. pneumoniae GC 7823 Fox 5; assay: MIC microbroth dilution; β-lactamase class C; type: cell-based; conditions: Klebsiella pneumoniae, GC7823FOX5, K. pneumoniae GC 7823, Cefepime alone, read-out: MIC
Method: as §1

[14] = test system: K. pneumoniae GC 7824 Fox 5; assay: MIC microbroth dilution; β-lactamase class C; type: cell-based
Method: as §1

[15] = test system: P. aeruginosa ATCC 27853 AmpC-inducable; assay: MIC microbroth dilution; β-lactamase class C; type: cell-based
Method: as §1

[16] = test system: P. aeruginosa GC 1764 (AmpC); assay: MIC microbroth dilution; β-lactamase class C; type: cell-based; conditions: Cefepime alone
Method: as §1

[17] = test system: P. aeruginosa GC 3153 Inducible AmpC; assay: MIC microbroth dilution; β-lactamase class C; type: cell-based; conditions: Cefepime alone
Method: as §1

[18] = test system: S. marcescens GC 4145 Inducible AmpC; assay: MIC microbroth dilution; β-lactamase class C; type: cell-based; conditions: Serratia marcescens, Cefepime alone, read-out: MIC
Method: as §1

[19] = test system: S. marcescens PT 696 Inducible AmpC; assay: MIC microbroth dilution; β-lactamase class C; type: cell-based; conditions: Serratia marcescens, Cefepime alone, read-out: MIC
Method: as §1

[20] = test system: A. baumannii GC 7692 TEM-1, AmpC; assay: MIC microbroth dilution; β-lactamase class A, C; type: cell-based
Method: as §1

[21] = test system: K. pn GC 2391 (pl 5.4; 5.6; 7.6; 8.7 B-lactamases); assay: MIC microbroth dilution; β-lactamase class A, A (ESBL), C; type: cell-based, K. pneumoniae; conditions: Klebsiella pneumoniae, Cefepime alone, read-out: MIC
Method: as §1

[22] = test system: A. baumannii PT 9444 PTZ-R; assay: MIC microbroth dilution; β-lactamase class not determined; type: cell-based
Method: as §1

[23] = Enterobacter cloacae, control of Compound 1 test, read-out: MIC
[24] = Cefepime alone, control of Compound 2 test
[25] = Pseudomonas aeruginosa, control of Compound 1 test, read-out: MIC

Structure (SMILES): CO/N=C(\C(=O)N[C@@H]1C(=O)N2C(C(=O)[O-])=C(C[N+]3(C)CCCC3)CS[C@H]12)c1csc(N)n1 [Cefepime, reference compound]
- MIC (E. coli GC 2009 (TEM-10); E. coli GC 2009, Cefepime alone, control of Compound 2 test): >16 µg/mL
- MIC (E. coli GC 2009 (TEM-10); Escherichia coli): > 16 µg/mL
- MIC (E. coli GC 2253 (IRT-2)): 0.03 µg/mL (≈ 0.0624 µM)
- MIC (E. coli GC 2805 (CcrA); E. coli GC 2805, Cefepime alone, control of Compound 2 test): >16 µg/mL
- MIC (E. coli GC 2805 (CcrA); Escherichia coli): > 16 µg/mL
- MIC ([1]; Acinetobacter baumannii, control of Compound 1 test, read-out: MIC): 16 µg/mL (≈ 33.3 µM)
- MIC ([1]; control of Compound 2 test): 16 µg/mL (≈ 33.3 µM)
- MIC ([2]; Acinetobacter baumannii, GC7687AMPC, control of Compound 1 test, read-out: MIC): 16 µg/mL (≈ 33.3 µM)
- MIC ([2]; control of Compound 2 test): 16 µg/mL (≈ 33.3 µM)
- MIC ([3]; control of Compound 2 test): 1 µg/mL (≈ 2.08 µM)
- MIC ([3]; Citrobacter freundii, control of Compound 1 test, read-out: MIC): 1 µg/mL (≈ 2.08 µM)
- MIC ([4]; control of Compound 2 test): 0.25 µg/mL (≈ 0.52 µM)
- MIC ([4]; Klebsiella aerogenes, control of Compound 1 test, read-out: MIC): 0.25 µg/mL (≈ 0.52 µM)
- MIC ([5]; control of Compound 1 test): 4 µg/mL (≈ 8.32 µM)
- MIC ([5]; control of Compound 2 test): 2 µg/mL (≈ 4.16 µM)
- MIC ([6]; control of Compound 2 test): 0.12 µg/mL (≈ 0.25 µM)
- MIC [6, 23]: 0.12 µg/mL (≈ 0.25 µM)
- MIC ([7]; control of Compound 1 test): > 16 µg/mL
- MIC ([7]; control of Compound 2 test): 8 µg/mL (≈ 16.6 µM)
- MIC ([8]; control of Compound 2 test): 0.25 µg/mL (≈ 0.52 µM)
- MIC [8, 23]: 0.25 µg/mL (≈ 0.52 µM)
- MIC ([9]; control of Compound 2 test): 0.12 µg/mL (≈ 0.25 µM)
- MIC [9, 23]: 0.12 µg/mL (≈ 0.25 µM)
- MIC ([10]; control of Compound 1 test): 0.25 µg/mL (≈ 0.52 µM)
- MIC ([10]; control of Compound 2 test): 0.5 µg/mL (≈ 1.04 µM)
- MIC ([11]; control of Compound 1 test): 0.25 µg/mL (≈ 0.52 µM)
- MIC ([11]; control of Compound 2 test): 0.06 µg/mL (≈ 0.125 µM)
- MIC [12, 24]: >16 µg/mL
- MIC ([12]; Klebsiella pneumoniae, GC7822ACT1, Cefepime alone, control of Compound 1 test, read-out: MIC): > 16 µg/mL
- MIC ([13]; control of Compound 1 test): 0.5 µg/mL (≈ 1.04 µM)
- MIC ([13]; control of Compound 2 test): 1 µg/mL (≈ 2.08 µM)
- MIC [14, 24]: 2 µg/mL (≈ 4.16 µM)
- MIC ([14]; Klebsiella pneumoniae, GC7824FOX5, Cefepime alone, control of Compound 1 test, read-out: MIC): 2 µg/mL (≈ 4.16 µM)
- MIC [15, 24]: 2 µg/mL (≈ 4.16 µM)
- MIC ([15]; Pseudomonas aeruginosa, ATCC27853, Cefepime alone, control of Compound 1 test, read-out: MIC): 2 µg/mL (≈ 4.16 µM)
- MIC ([16]; control of Compound 2 test): 8 µg/mL (≈ 16.6 µM)
- MIC [16, 25]: 8 µg/mL (≈ 16.6 µM)
- MIC ([17]; control of Compound 2 test): 16 µg/mL (≈ 33.3 µM)
- MIC [17, 25]: 16 µg/mL (≈ 33.3 µM)
- MIC ([18]; control of Compound 1 test): 1 µg/mL (≈ 2.08 µM)
- MIC ([18]; control of Compound 2 test): 0.5 µg/mL (≈ 1.04 µM)
- MIC ([19]; control of Compound 1 test): 0.25 µg/mL (≈ 0.52 µM)
- MIC ([19]; control of Compound 2 test): 0.5 µg/mL (≈ 1.04 µM)
- MIC ([20]; A. baumannii GC 7692, Cefepime alone, control of Compound 2 test): >16 µg/mL
- MIC ([20]; Acinetobacter baumannii): > 16 µg/mL
- MIC ([21]; control of Compound 1 test): 16 µg/mL (≈ 33.3 µM)
- MIC ([21]; control of Compound 2 test): 4 µg/mL (≈ 8.32 µM)
- MIC ([22]; A. baumannii PT 9444, Cefepime alone, control of Compound 2 test): >16 µg/mL
- MIC ([22]; Acinetobacter baumannii, PT9444PTZR): > 16 µg/mL
